In patent publication US10364323B2, “Method for producing polyether carbonate polyols” (priority 2015, dated 2019):

Assay: physchem
Description: The pKa in the context of the process according to the invention is to be understood as meaning the negative decadic logarithm of the first dissociation constant of the carboxylic acid at a temperature of 25 degrees Celsius. […] The pKa of the carboxylic acid may be measured by determining the pH at the half-equivalence point. To this end, an aqueous solution of the carboxylic acid is titrated against sodium hydroxide solution of a defined concentration and in each case the pH of the solution is measured using a calibrated combination pH electrode. […] According to the Henderson-Hasselbalch equation at the half-equivalence point the pKa corresponds to the measured pH because the acid and its corresponding base are present in equal concentration. Carboxylic acids having an insufficient solubility in water are titrated in methanolic solution (pKLy=16.7) or ethanolic solution (pKLy=19.1), wherein pKLy is defined as follows for non-aqueous media.
[formula] […] Chem., 1985, Vol. 57, No. 6, pp. 865-876.

Structure (SMILES)	pKa
O=C(O)C(=O)O [Oxalic acid]	1.46
O=C(O)CCCCCC(=O)O [Pimelic acid]	4.71
